Source: patent US8410337B2, “Plant tubby-like proteins” (Academia Sinica, priority 2003, dated 2013)

Key:
[1] = tested on: Arabidopsis seedlings; assay: Seedling growth and greening on MS agar with ABA; assay type: in vivo, Arabidopsis thaliana; settings: 1 μM ABA and 1% sucrose
Protocol: (§1) All seeds of the above-described lines were surface sterilized with 70% ethanol for 30 s and then with 6% household bleach for 5 min before being washed five times with sterile water. For aseptic growth, they were plated on solid medium containing Murashige and Skoog salts (Invitrogen), vitamins (Duchefa), 0.7% phytoagar (Invitrogen), and 1% sucrose and transferred to a tissue culture room. For soil growth, seedlings were transferred into individual pots 8-10 days after germination and maintained in the growth chamber. Plants were grown at 22° C. under a 16-hr-light/8-hr-dark photoperiod aseptically or on soil.
In contrast, under the same conditions, attlp9-1 and attlp9-2 plants continued to grow and about 45% of the seedlings continued to develop true leaves, although at slower rates than abi4-1 mutant does.

[2] = tested on: Arabidopsis seeds; assay: Seed germination on media containing ABA; assay type: in vivo, Arabidopsis thaliana; settings: 1 μM ABA
Protocol: as §1
To determine whether the transgenic plants display altered ABA responses, the above-described lines were germinated on media containing various concentrations of ABA. Seeds collected at the same or similar times were used. After surface-sterilization, sterile seeds were suspended in 0.15% agarose, and kept in the dark at 4° C. for 3 days to break residual dormancy. The seeds were then plated on agar plates in six replicates containing no ABA or 0.25, 0.5, 0.75, or 1.0 μM ABA in 12-cm plastic petri dishes. Each agar plate was divided into seven sections, and 50 seeds of WT and AtTLP9 transgenic seeds were plated on each section. A seed was regarded as germinated when the radicle protruded through the seed coat.

[3] = tested on: AtTLP7 gene expression; settings: channel 2 treated vs channel 1 control; cited from earlier work
[4] = tested on: AtTLP10 gene expression; settings: channel 2 treated vs channel 1 control; cited from earlier work
[5] = molecular target: T1, ASK1 (Arabidopsis thaliana, UniProt Q39255); assay: Yeast two-hybrid analysis; assay type: binding; settings: AtTLP9 in pBD-GAL4 Cam, ASK1 in pAD-GAL4-2.1, yeast strain YRG-2
T1 construct: fragment containing the entire coding region of ASK1 (At1g75950); expressed in transfected cells; host or cells: Saccharomyces cerevisiae strain YRG-2
T1 sequence (Q39255 1-160): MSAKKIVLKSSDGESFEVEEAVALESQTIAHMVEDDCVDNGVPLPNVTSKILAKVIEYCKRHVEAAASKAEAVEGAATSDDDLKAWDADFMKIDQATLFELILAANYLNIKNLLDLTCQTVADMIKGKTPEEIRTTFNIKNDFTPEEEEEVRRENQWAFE
T1 sequence (Q9SQU1 1-380 partner): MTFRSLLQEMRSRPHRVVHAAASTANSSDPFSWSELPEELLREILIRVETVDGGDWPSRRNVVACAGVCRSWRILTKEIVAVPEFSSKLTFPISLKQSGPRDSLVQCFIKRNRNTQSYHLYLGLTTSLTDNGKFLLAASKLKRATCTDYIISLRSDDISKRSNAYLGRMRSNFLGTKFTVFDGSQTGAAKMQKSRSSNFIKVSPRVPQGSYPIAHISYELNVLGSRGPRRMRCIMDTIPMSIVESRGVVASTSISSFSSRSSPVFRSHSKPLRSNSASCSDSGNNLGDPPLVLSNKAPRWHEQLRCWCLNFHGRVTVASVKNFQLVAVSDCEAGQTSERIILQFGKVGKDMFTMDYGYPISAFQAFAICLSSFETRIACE
Excerpt: To test whether AtTLP could interact with ASK1, AtTLP9 was examined by the yeast two-hybrid analysis. Yeast two-hybrid vectors, pAD-GAL4-2.1 and pBD-GAL4 Cam (Stratagene, La Jolla, Calif.), were used for C-terminal GAL4 AD and BD fusion constructions, respectively. A 1.1-kb SalI-PstI fragment containing the entire coding region of AtTLP9 was cloned into the SalI-PstI site of the pBD-GAL4 Cam vector. A 480-bp EcoRI-PstI fragment containing the entire coding region of ASK1 (At1g75950) was cloned into the EcoRI-PstI site of the pAD-GAL4-2.1 vector. The yeast strain YRG-2 [MATa ura3-52 his3-200 ade2-101 lys2-801 trp1-901 leu2-3,112 ga14-542 ga180-538 LYS2::GAL1UAS-GAL1TATA-HIS3 URA3::(GAL43×17mer)-CYC1TATA-lacZ] was co-transformed with the two vectors. The Y2H analysis was performed according to the manufacturer's recommendations (Stratagene).

CC1=CC(=O)CC(C)(C)[C@@]1(O)/C=C/C(C)=C\C(=O)O [ABA, Abscisic acid]
seedlings showing developmental arrest ([1]; 10-d-old seedlings of sense lines): 90%
seedlings continuing to develop true leaves ([1]; attlp9-1 and attlp9-2 plants): about 45%
germination rate ([2]; attlp9-1 and attlp9-2 mutant seeds): ~50%
germination rate ([2]; sense lines seeds (35S::AtTLP9 overexpression)): less than 10%
seeds able to germinate ([2]; wild-type seeds): about 30%

O=C(O)Cc1c[nH]c2ccccc12 [IAA]
Ch2/Ch1 Normalized (Mean) AtTLP7 [3]: 2.21

O=C(O)Cc1cccc2ccccc12 [NAA]
Ch2/Ch1 Normalized (Mean) AtTLP7 [3]: 0.46
Ch2/Ch1 Normalized (Mean) AtTLP10 [4]: 2.22

B1: AtTLP9: Arabidopsis TUBBY-like protein, polypeptide SEQ ID NO: 9 (protein, listed as Arabidopsis sp.)
chain: MTFRSLLQEMRSRPHRVVHAAASTANSSDPFSWSELPEELLREILIRVETVDGGDWPSRRNVVACAGVCRSWRILTKEIVAVPEFSSKLTFPISLKQSGPRDSLVQCFIKRNRNTQSYHLYLGLTTSLTDNGKFLLAASKLKRATCTDYIISLRSDDISKRSNAYLGRMRSNFLGTKFTVFDGSQTGAAKMQKSRSSNFIKVSPRVPQGSYPIAHISYELNVLGSRGPRRMRCIMDTIPMSIVESRGVVASTSISSFSSRSSPVFRSHSKPLRSNSASCSDSGNNLGDPPLVLSNKAPRWHEQLRCWCLNFHGRVTVASVKNFQLVAVSDCEAGQTSERIILQFGKVGKDMFTMDYGYPISAFQAFAICLSSFETRIACE
interaction with ASK1 [5]: physically interacts with ASK1
